According to patent publication US20240099964A1, “Methods and Compositions for the Prophylactic Treatment of SARS-CoV-2 virus (COVID-19)” (MedinCell S.A., priority 2020, published 2024):

How the values were obtained:
[1] = test system: SARS-CoV-2 clinical isolate; conditions: Vero/hSLAM cells, cited from earlier work
[2] = test system: Zika virus (ZIKV); conditions: mice; cited from earlier work
[3] = test system: Vero-E6 cells; test: Cytotoxicity in non-infected Vero-E6 cells (cell viability); type: cell-based; conditions: 0.01-5 μM ivermectin
Method: For avoiding false positives, cytotoxicity was evaluated by culturing non-infected cells in the same conditions and with the same concentrations of ivermectin. Cell viability was then determined.

[4] = test system: SARS-CoV-2; test: Ivermectin effect on preventing SARS-CoV-2 infection of pretreated Vero-E6 cells (qRT-PCR); type: cell-based
Method: Assessment of Ivermectin effect on preventing SARS-CoV-2 infection Vero-E6 cells were incubated with 0.01, 0.025, 0.05, 0.1, 0.5, 1 or 5 μM concentrations of ivermectin during 2, 6, 16 or 24 hours. Then, cells were infected with SARS-CoV-2 at a multiplicity of infection (MOI) of 0.001, 0.01 or 0.1. After 2 hours of incubation in the presence of the virus, medium with the same concentration of ivermectin was added again. After 24, 48 or 72 hours, viral charge is quantified by qRT-PCR.

[5] = test system: DENV; conditions: single daily oral dose; cited from earlier work

Substance: ivermectin
- antiviral action in vitro [1]: has antiviral action
- time within which a single dose controls viral replication ([1]; single dose): 24 to 48 h
- effectiveness against Zika virus [2]: not effective
- cell toxicity [3]: No cell toxicity
- preincubation-time dependency of inhibition of viral replication ([4]; 72 hours post-infection, preincubation 2, 6, 16 or 24 hours): the longer the preincubation time with ivermectin, the higher the inhibition of viral replication
- viral replication (RT-qPCR) ([4]; cells pretreated with ivermectin at 5 μM): highly inhibited
- safety [5]: safe
- serum levels of viral NS1 protein [5]: significant reduction
- viremia or clinical benefit [5]: no change
